Test results from patent US10168342B2, “Lipid probes and uses thereof” (THE SCRIPPS RESEARCH INSTITUTE, priority 2015, dated 2019).

Legend:
[1] = molecular target: T1, A-DA lipid probe targets in Neuro2a cells (Mus musculus, UniProt P22437); experiment: In situ competitive SILAC profiling with A-DA probe in Neuro2a cells; type: cell-based; conditions: Neuro2a cells, A-DA 5 μM, drug 25 μM
T1 construct: endogenous in cells; host or cells: Neuro2a

[2] = tested on: membrane and soluble proteins of HEK293T cells; experiment: Gel-based profiling of lipid probe labeling in HEK293T cells; type: cell-based, human; conditions: probe 20 μM, 30 min, UV
Method: For gel-based analysis, after sonicating the membrane pellets in cold DPBS, protein concentrations of each fraction were determined using the BCA protein assay (Bio-Rad) and a microplate reader (Tecan, Infinite F500).
Proteomes were diluted to 1.0 mg/mL (total protein concentration) and 50 μL of each proteome was transferred to separate wells in a 96-well plate.
In some instances, within the arachidonoyl subset of probes, fatty acid- and fatty acid amide-based probes (AA-DA and AEA-DA, respectively) were synthesized and their potential were evaluated to bind and covalently modify (under UV-light exposure) proteins in human cells by gel-based profiling. For example, HEK293T cells were treated with probe (AA-DA or AEA-DA; 20 μM, 30 min), irradiated with UV light (10 min, 4° C.), lysed and the cell proteomes fractionated into membrane and soluble components by centrifugation prior to conjugation to a fluorescent reporter tag (Rh—N3) using CuAAC (FIG. 4A). […] In some instances, this was a consequence of rapid sequestration of this probe into membranes through its metabolic incorporation into phospho/neutral-lipids or into lipidated proteins. […] In some instances, the labeling profile of the AEA-DA probe reflected a limited capacity of the cell to metabolize this amidated probe, which undergoes enzyme-mediated hydrolysis prior to incorporation into other lipids or proteins.

[3] = tested on: PGF2α-EA formation in PMA-stimulated A549 cells; experiment: Oxidative metabolism of AEA in A549 cells (prostamide formation); type: cell-based, human; conditions: MJN228, KML110 5 and 25 μM, others 25 μM, AEA 20 μM
Method: The media from the PMA-stimulated cells was removed and cells were washed with DPBS (2×3 mL) before adding freshly prepared media solutions containing vehicle or compound (2 mL/plate). After incubating for 30 min at 37° C., a solution of BHT-stabilized AEA (60 μM AEA; 60 μM BHT) in the same media was added to the cells (1.0 mL/plate) and incubated for 1 h. The media from the cells was then transferred to glass vials containing MS internal standards [PGE2-EA-d4 (25 pmol)], centrifuged (1,500×g, 5 min) to remove detached cells and then loaded onto pre-equilibrated reversed phase SPE cartridges (Phenomenex, Strata-X 33 μm, 60 mg/3 mL). After washing cartridges with 5% MeOH/H2O (3 mL), prostamides were eluted with MeOH (1.0 mL) and the eluent was concentrated under a stream of N2. Concentrated samples were stored at −80° C. until the day of analysis when they were reconstituted in Mobile Phase A [100 μL, 30% CH3CN in H2O (0.1% AcOH, 5.0 mM NH4OAc)].
Media extracts were analyzed by LC/MS/MS with LC separation performed on a Kinetex reversed phase C18 column (50×4.6 mm, 2.6 μm particle size, 100Å). Mobile phase A was composed of 30% (v/v) CH3CN in H2O and Mobile phase B was composed of 50% (v/v) CH3CN in i-PrOH. Both mobile phases also contained 0.1% AcOH and NH4OAc (5 mM) to facilitate ionization and LC separation. […]
MS analysis of prostamides was performed on an Agilent 6460 Triple Quadrupole LC/MS System with operating conditions as follows: gas temperature (300° C.); gas flow (9 L·min^−1); nebulizer (45 psi); sheath gas temperature (300° C.); sheath gas flow (12 L·min^−1); positive and negative capillary voltage (3.5 kV). Analysis was achieved using multiple reaction monitoring with precursor to product ion transitions, optimized collision energies (CE) as listed below and prostamide quantification was achieved by normalized of analyte peaks relative to a deuterated prostamide internal standard (PGE2-EA-d4) to account for differences in extraction efficiency. […]

[4] = molecular target: T2, A-DA lipid probe targets in A549 cells (Homo sapiens, UniProt P35354); experiment: In situ competitive SILAC profiling with A-DA probe in (PMA-stimulated) A549 cells; conditions: PMA-stimulated A549 cells, A-DA 5 μM, drug 25 μM
T2 sequence (P35354 18-604): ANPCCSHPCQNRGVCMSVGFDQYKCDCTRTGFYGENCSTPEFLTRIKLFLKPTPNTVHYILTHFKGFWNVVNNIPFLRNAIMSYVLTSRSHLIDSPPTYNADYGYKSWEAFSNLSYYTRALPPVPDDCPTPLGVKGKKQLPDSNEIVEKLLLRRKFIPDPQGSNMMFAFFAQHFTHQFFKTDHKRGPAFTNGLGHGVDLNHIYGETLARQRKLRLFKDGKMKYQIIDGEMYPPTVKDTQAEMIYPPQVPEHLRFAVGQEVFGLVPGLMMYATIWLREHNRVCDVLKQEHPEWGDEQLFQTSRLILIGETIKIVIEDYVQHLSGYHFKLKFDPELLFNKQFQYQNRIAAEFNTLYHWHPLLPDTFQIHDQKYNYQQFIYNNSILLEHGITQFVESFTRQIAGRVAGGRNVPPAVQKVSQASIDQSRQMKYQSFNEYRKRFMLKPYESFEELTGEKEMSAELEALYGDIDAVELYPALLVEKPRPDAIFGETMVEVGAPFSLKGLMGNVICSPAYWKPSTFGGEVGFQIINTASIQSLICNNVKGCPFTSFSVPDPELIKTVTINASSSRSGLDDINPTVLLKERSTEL

[5] = molecular target: A-DA lipid probe targets in A549 cells (Homo sapiens, UniProt P07093); experiment: as above; conditions: protein SERPINE2 (P07093); A549 cells; competitor 25 μM
Sequence of A-DA lipid probe targets in A549 cells (Homo sapiens, UniProt P07093) (P07093 20-398): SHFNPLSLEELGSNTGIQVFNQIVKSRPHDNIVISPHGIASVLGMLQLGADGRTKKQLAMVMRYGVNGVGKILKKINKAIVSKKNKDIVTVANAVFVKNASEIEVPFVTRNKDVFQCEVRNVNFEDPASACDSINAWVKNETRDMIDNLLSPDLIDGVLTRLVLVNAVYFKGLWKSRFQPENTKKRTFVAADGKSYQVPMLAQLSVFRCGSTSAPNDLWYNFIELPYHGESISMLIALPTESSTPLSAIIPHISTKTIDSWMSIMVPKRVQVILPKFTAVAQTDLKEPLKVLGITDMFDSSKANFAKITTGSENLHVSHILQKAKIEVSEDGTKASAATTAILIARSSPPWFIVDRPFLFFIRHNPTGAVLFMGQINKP

[6] = molecular target: T3, A-DA lipid probe targets in A549 cells (Homo sapiens, UniProt Q9UH99); experiment: as above; conditions: protein SUN2 (Q9UH99); A549 cells; competitor 25 μM
T3 sequence (Q9UH99 1-717): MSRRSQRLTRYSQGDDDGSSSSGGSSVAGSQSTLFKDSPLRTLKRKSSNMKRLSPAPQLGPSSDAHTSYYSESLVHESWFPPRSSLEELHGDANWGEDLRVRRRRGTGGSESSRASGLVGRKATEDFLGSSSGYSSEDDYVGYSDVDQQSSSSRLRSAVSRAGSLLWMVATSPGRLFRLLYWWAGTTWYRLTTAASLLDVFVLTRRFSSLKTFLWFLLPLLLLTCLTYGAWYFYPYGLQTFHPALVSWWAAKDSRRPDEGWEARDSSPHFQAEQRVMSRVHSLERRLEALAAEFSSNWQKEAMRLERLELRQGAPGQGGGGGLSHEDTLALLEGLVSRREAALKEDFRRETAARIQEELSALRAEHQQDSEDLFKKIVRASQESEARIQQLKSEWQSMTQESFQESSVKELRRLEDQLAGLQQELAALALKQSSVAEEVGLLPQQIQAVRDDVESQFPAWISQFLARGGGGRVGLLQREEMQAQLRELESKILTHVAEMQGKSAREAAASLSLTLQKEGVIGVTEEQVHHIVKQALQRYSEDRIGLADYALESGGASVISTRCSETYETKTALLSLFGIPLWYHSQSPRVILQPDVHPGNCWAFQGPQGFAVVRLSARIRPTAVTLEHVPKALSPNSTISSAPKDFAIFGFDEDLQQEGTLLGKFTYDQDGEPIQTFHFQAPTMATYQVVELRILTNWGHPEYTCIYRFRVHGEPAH

[7] = molecular target: T4, A-DA lipid probe targets in Neuro2a cells (Mus musculus, UniProt P45377); experiment: In situ competitive SILAC profiling with A-DA probe in Neuro2a cells; type: cell-based; conditions: Neuro2A cells, A-DA 5 μM, drug 25 μM
T4 construct: endogenous in cells; host or cells: Neuro2a
T4 sequence (P45377 whole entry): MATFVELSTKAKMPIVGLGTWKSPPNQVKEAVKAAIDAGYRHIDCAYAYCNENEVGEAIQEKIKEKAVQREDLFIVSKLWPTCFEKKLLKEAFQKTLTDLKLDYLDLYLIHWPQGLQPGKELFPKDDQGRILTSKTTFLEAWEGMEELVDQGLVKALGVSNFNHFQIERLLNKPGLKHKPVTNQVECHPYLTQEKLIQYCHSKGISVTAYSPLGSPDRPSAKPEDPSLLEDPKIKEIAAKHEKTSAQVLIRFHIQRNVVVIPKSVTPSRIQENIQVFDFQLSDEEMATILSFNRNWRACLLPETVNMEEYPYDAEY

[8] = tested on: sterol-binding proteins in HeLa cells; experiment: Gel-based profiling of sterol-binding proteins in HeLa cells; type: cell-based, human; conditions: 1-20 μM probe
Method: HeLa cells were grown at 37° C. under a humidified 5% CO2 atmosphere, in a culture medium consisting of high-glucose DMEM (HyClone) supplemented with 10% fetal bovine serum (FBS; Gemini) and penicillin, streptomycin, and glutamine (Cellgro; PSQ). For SILAC experiments, the culture medium was replaced with SILAC DMEM (Thermo) supplemented instead with 10% dialyzed FBS, PSQ, and 100 μg/ml [^13C6, ^15N4] L-arginine-HCl and [^13C6, ^15N2] L-lysine-HCl (Sigma-Aldrich). Cells were passaged at least six times in isotopically labeled media before being utilized for analysis by LC-MS/MS.
To facilitate delivery to cells, all sterols and steroids, including the sterol probes, were complexed in aqueous solution to mβCD (Sigma-Aldrich) for at least twelve hours before dilution in culture medium for labeling. The desired amount of sterol or steroid was added to a saturated aqueous mβCD (38 mM) solution to generate a concentrated stock, and agitated at room temperature overnight; solutions were filtered prior to use the following day. […]
Frozen cell pellets were thawed on ice and lysed in PBS by sonication. Protein concentrations of cell lysates were determined using the BCA protein assay on a microplate reader. […] After 1 hour, samples were mixed with SDS sample loading buffer and loaded without boiling on a 10% SDS-PAGE gel, separated, and imaged using a Hitachi FMBIO-II flatbed fluorescence scanner.

[9] = tested on: sterol-binding proteins in HeLa cells; experiment: SILAC MS-based profiling of sterol-binding proteins in HeLa cells; type: cell-based, human; conditions: probe-enriched proteins
Method: To facilitate delivery to cells, all sterols and steroids, including the sterol probes, were complexed in aqueous solution to mβCD (Sigma-Aldrich) for at least twelve hours before dilution in culture medium for labeling. The desired amount of sterol or steroid was added to a saturated aqueous mβCD (38 mM) solution to generate a concentrated stock, and agitated at room temperature overnight; solutions were filtered prior to use the following day. Aqueous stock solutions of the trans probe were prepared at 2 mM; the cis and epi probes were prepared at 1.2 mM; cholesterol and other sterols for competition were prepared at 4 mM; steroids were prepared at 5 mM. […]

T1 sequence (P22437 27-602): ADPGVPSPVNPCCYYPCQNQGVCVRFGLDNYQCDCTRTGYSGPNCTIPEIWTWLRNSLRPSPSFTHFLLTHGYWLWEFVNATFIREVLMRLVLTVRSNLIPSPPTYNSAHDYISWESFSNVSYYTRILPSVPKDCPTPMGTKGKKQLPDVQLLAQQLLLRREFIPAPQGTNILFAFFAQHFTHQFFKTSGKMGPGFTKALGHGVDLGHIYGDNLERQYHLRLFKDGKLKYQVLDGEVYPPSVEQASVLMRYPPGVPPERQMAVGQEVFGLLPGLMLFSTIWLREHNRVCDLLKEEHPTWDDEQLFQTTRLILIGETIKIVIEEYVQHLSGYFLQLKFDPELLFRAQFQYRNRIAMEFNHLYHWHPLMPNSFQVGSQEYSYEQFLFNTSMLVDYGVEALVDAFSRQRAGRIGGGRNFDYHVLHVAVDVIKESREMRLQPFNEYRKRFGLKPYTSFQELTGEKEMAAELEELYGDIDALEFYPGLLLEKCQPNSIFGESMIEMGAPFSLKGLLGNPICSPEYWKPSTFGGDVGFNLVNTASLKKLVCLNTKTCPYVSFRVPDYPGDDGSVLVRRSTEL

CC(C(=O)O)c1ccc(-c2ccccc2)c(F)c1 (racemic) [(±)-flurbiprofen]
competition of A-DA labeling of PTGS1 [1]: competitively blocked

C#CCCCC1(CC/C=C\C/C=C\C/C=C\CCCC(=O)O)N=N1 [AA-DA, (5Z,8Z,11Z)-14-(3-(pent-4-yn-1-yl)-3H-diazirin-3-yl)tetradeca-5,8,11-trienoic acid]
protein labeling profile (membrane vs soluble) [2]: almost exclusive labeling of membrane proteins

CS(=O)(=O)c1ccc(C2=C(c3ccccc3)C(=O)OC2)cc1 [rofecoxib, reference compound]
conversion of exogenous AEA to PGF2α-EA [3]: blocked | competition of A-DA labeling of PTGS2 [4]: disrupted | SILAC ratio, A-DA competition [5]: 1.1 | SILAC ratio, A-DA competition [6]: 1.2 | A-DA labeling of AKR1B8 [7]: reductions

C#CCCCCOC(=O)CC[C@@H](C)[C@H]1CCC2C3CC4(N=N4)[C@H]4C[C@@H](O)CC[C@]4(C)C3CC[C@@]21C (stereo partly drawn) [trans-sterol probe, (4R)-hex-5-yn-1-yl 4-((3S,5S,10R,13R,17R)-3-hydroxy-10,13-dimethyl-1,2,3,4,5,7,8,9,10,11,12,13,14,15,16,17-hexadecahydrospiro[cyclopenta[a]phenanthrene-6,3′-diazirin]-17-yl)pentanoate]
overall protein-labeling profile by gel [8]: stronger overall protein-labeling profiles | mean labeling intensity ratio trans/epi ([9]; standard deviation 1.2): 2.1 | mean labeling intensity ratio trans/cis ([9]; standard deviation=0.57): 0.9
